Reference: PubChem BioAssay (NCI)
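Five concentrations, 48 hours, 96-well plates. GI50 is the concentration that inhibits growth by half. TGI denotes the concentration required for complete inhibition of growth.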

How the values were obtained:
Assay in all cases: growth of human tumour cells (NCI), 48 h
ACHN renal = tested on: ACHN renal
EKVX NSCLC = tested on: EKVX NSCLC
K-562 leukemia = tested on: K-562 leukemia
MDA-MB-231 breast = tested on: MDA-MB-231 breast
OVCAR-5 ovarian = tested on: OVCAR-5 ovarian
SK-MEL-28 melanoma = tested on: SK-MEL-28 melanoma
SNB-19 CNS = tested on: SNB-19 CNS
UACC-62 melanoma = tested on: UACC-62 melanoma
DU-145 prostate = tested on: DU-145 prostate
M14 melanoma = tested on: M14 melanoma

Row | Compound | GI50 (ACHN renal) | TGI (ACHN renal) | GI50 (EKVX NSCLC) | TGI (EKVX NSCLC) | GI50 (K-562 leukemia) | TGI (K-562 leukemia) | GI50 (MDA-MB-231 breast) | TGI (MDA-MB-231 breast) | GI50 (OVCAR-5 ovarian) | TGI (OVCAR-5 ovarian) | GI50 (SK-MEL-28 melanoma) | TGI (SK-MEL-28 melanoma) | GI50 (SNB-19 CNS) | TGI (SNB-19 CNS) | GI50 (UACC-62 melanoma) | TGI (UACC-62 melanoma) | GI50 (DU-145 prostate) | TGI (DU-145 prostate) | GI50 (M14 melanoma) | TGI (M14 melanoma)
1 | COC(=O)CC[C@]1(C)O[C@H]2[C@H]([C@@H](C)CCCC(C)=O)OC(=O)[C@@H]2C[C@H]1O | > 100 µM | > 100 µM | > 100 µM | > 100 µM | > 100 µM | > 100 µM | > 100 µM | > 100 µM | > 100 µM | > 100 µM | > 100 µM | > 100 µM | > 100 µM | > 100 µM | > 100 µM | > 100 µM |  |  |  | 
2 | COc1ccc(NC([Se])=NC23CC4CC(CC(C4)C2)C3)cc1 | 1.99 µM | 4.71 µM | 1.97 µM | 4.74 µM | 0.542 µM | 18.8 µM | 1.79 µM | 3.91 µM | 1.7 µM | 4.68 µM |  |  | 1.86 µM | 50.6 µM | 1.43 µM | 4.96 µM | 3.13 µM | 11.2 µM | 1.37 µM | 3.29 µM
3 | COc1cc2c(cc1OC)-c1ccc3cc4c(cc3c1N(CCCn1ccnc1)C2)OCO4 | 10.1 µM | 65.9 µM | 31.9 µM | > 100 µM |  |  | 3.34 µM | 18.8 µM | 16.4 µM | 69.9 µM | 3.74 µM | 17.7 µM | 0.79 µM | 12.7 µM | 0.67 µM | 2.72 µM | 3.21 µM | 34.5 µM | 3.5 µM | 15.6 µM
4 | CC(=C/C=C/C=C(C)\C=C\C=C(\C)C(=O)O)/C=C/C=C(/C)C(=O)O |  | > 100 µM |  |  |  | > 100 µM |  | > 100 µM |  | > 100 µM |  | > 100 µM |  |  |  | > 100 µM |  | > 100 µM |  | > 100 µM
5 | CC(=O)N1C/C(=C/c2ccc(Cl)cc2)C(=O)/C(=C/c2ccc(Cl)cc2)C1 | 0.769 µM | 2.05 µM |  |  | 0.335 µM | > 100 µM | 1.15 µM | 3.23 µM | 1.68 µM | 3.45 µM | 1.54 µM | 3.2 µM | 1.14 µM | 2.49 µM | 0.664 µM | 1.84 µM | 1.13 µM | 2.62 µM | 0.735 µM | 2.11 µM
6 | NC1CCC(Nc2nc(NCc3ccc(-c4ccccc4O)nc3)c3ncn(C4CCCC4)c3n2)CC1 (centres undefined) | 0.14 µM | 1.07 µM | 0.0291 µM | 0.474 µM |  |  | < 0.0105 µM | 0.895 µM | 0.0322 µM | 1.38 µM | 0.0211 µM | 0.0713 µM | < 0.0147 µM | 1.32 µM | < 0.0174 µM | 0.0593 µM | 0.0344 µM | 1.16 µM | 0.0112 µM | 0.0552 µM
7 | C[C@@H](O)[C@H](NC(=O)N[C@@H](CC(N)=O)c1nc([C@@H](N)CO)no1)C(=O)O | > 100 µM | > 100 µM | > 100 µM | > 100 µM |  |  | > 100 µM | > 100 µM | > 100 µM | > 100 µM | > 100 µM | > 100 µM | > 100 µM | > 100 µM | > 100 µM | > 100 µM | > 100 µM | > 100 µM | > 100 µM | > 100 µM
8 | O=C(CCc1nnc2s/c(=C\c3ccc(Cl)c(Cl)c3)c(=O)n12)Nc1ccc(Cl)c(Cl)c1 |  | > 100 µM |  | > 100 µM |  | > 100 µM |  |  |  | > 100 µM |  | > 100 µM |  | > 100 µM |  | > 100 µM |  |  |  | > 100 µM
9 | CC(C)[O-].CC(C)[O-].O=C1C=C([O-])C(=O)c2ccccc21.O=C1C=C([O-])C(=O)c2ccccc21.[Ti+4] | > 85.5 µM | > 100 µM | > 44.8 µM | > 91.1 µM | > 89.4 µM | > 100 µM |  |  | > 100 µM | > 100 µM | > 100 µM | > 100 µM | > 100 µM | > 100 µM | 17.6 µM | > 100 µM |  |  | 17.8 µM | > 100 µM
10 | COc1cc(N2CCC(N3CCN(C)CC3)CC2)ccc1Nc1ncnc(Nc2ccccc2S(=O)(=O)C(C)C)n1 | 2.38 µM | 14.8 µM |  |  | 10.6 µM | 73.7 µM | 3.31 µM | 18.5 µM | 2.06 µM | 12.8 µM | 10.9 µM | 34.9 µM | 4.98 µM | > 69.3 µM | 8.35 µM | 27.1 µM | 5.32 µM | 20.9 µM | 4.07 µM | 16.6 µM
11 | CCN(CC)CCCNC(=O)C1COc2cc(-c3cc(=O)c4ccccc4o3)ccc2O1 (centres undefined) |  | > 100 µM |  | > 100 µM |  | > 100 µM |  |  |  | > 100 µM |  | 40.8 µM |  | > 100 µM |  | > 100 µM |  |  |  | 40 µM
